Series [1] can be described thus: Instantaneous solubility of the compounds of formula (I) in aqueous media. Conditions: for Solubility, dissolution medium Acetic buffer pH 7.5 / Solubility, dissolution medium Phosphate buffer pH 7.5 / Solubility, dissolution medium Water / Solubility, dissolution medium Water + 10% ethanol: instantaneous solubility, room temperature. It is filed as physicochemical. The protocol: (§1) Furthermore, the hydrophobic character of the compounds of formula (I) is very strongly pronounced. […] These compounds are soluble in alcohols and glycols and more particularly in polyethylene glycols (PEG).
The solubilities of the compounds of formula (I) are measured in different aqueous media. The instantaneous solubility is evaluated at room temperature by quantitative analysis. The results, expressed in μg per ml, are collated in Table 1 below: […]

A short description of series [2]: Solubility of compound A in solvents and after dilution of the solutions in water. It is filed as physicochemical. Conditions: for solubility: organic solvent or mixture. The protocol: as §1
However, when the solutions obtained with an alcohol or a glycol are diluted in an aqueous medium, the compound of formula (I) precipitates because of its strongly hydrophobic character.
Measurements were also made of the solubility of compound A in different solvents (Table 2) and after dilution in water of the solutions formed (Table 3).

Series [3] can be described thus: Intestinal transepithelial passage across Caco-2 monolayer. The conditions noted are these: human, Caco-2; introduced in Hank's medium pH 6.5, in solution in DMSO; apical to basal; read-out: Coefficient of permeability P. It is filed as in vitro ADME. As to the method:
(§2) The permeability of the epithelium of the compounds is evaluated using the Caco-2 cell line, which has the characteristic of undergoing differentiation in vitro to form an epithelial monolayer (Crit. Rev. Ther. Drug Carrier System, 1991, 8 (4), 105-330). In this model the permeability of compound A dissolved in dimethyl sulfoxide (DMSO) is high, showing that it has a good ability to be absorbed by the intestine when it is in solution.
(§3) Caco-2 cells are cultured onto microporous polycarbonate filters covered with collagen. The cellular monolayer formed on the filter then makes it possible to separate an apical compartment (imitating the intestinal lumen) from a basal compartment (imitating the blood circulation).
(§4) The composition containing the compound to be studied is placed on the apical side and the passage of this compound, dispersed or solubilized in Hank's medium, through this cellular barrier is evaluated by measuring the kinetics of its appearance on the basal side. This aqueous medium, of pH 6.5, has the following composition: NaCl=8.0 g/l; KCl=0.4 g/l; CaCl2=0.19 g/l; MgCl2=0.1 g/l; MgSO4=0.1 g/l; Na2HPO4=0.09 g/l; KH2PO4=0.06 g/l; NaHCO3=0.35 g/l; glucose=1 g/l; phenol red=0.01 g/l.
(§5) The coefficient of permeability P, in cm/s, is then determined; this characterizes the rate of passage of the molecule through the membrane, namely: P=(da/dt).(1/A.Co) • where: • da/dt=variation of the amount of test compound passing through the cellular monolayer as a function of time (mol/s) • A=surface area of the monolayer (cm^2) • Co=initial concentration of the test compound (mol/l)
A general note: Caco-2 cells form a polarised layer with tight junctions and transporters.

The subject of series [4] is Caco-2 cells. The series is described as above. Format: in vitro ADME. As to the method: as §2, §3, §4, §5
Series [5] can be described thus: Kinetics of dissolution in a gastric medium. It is filed as physicochemical. The conditions noted are these: 40 mg in one liter, phosphate-citrate buffer pH 3, 37° C., no surfactant. The protocol: The kinetics of dissolution of different formulations in a gastric medium were studied at 37° C. in a phosphate-citrate buffer of pH 3 for 30 minutes. […]
6 tests were carried out for each formulation and the amount of compound A dissolved in the medium was measured every 5 minutes.
Table 7 indicates the mean value of the percentage of compound A dissolved and the standard deviation relative to this value for the different formulations described in Table 6.

The nature of series [6]: Wettability by H. Mohamad's method. It is filed as physicochemical.
Description: as §1
The wettability of compound A was studied in different formulations using the method of H. Mohamad et al., Labo Pharma. Problèmes techniques, 1984, 32 (346), 284-289.

[7] abbreviates: ethanol solution, dilution in water 10%.
Setting [8] is: polyethylene glycol 400 solution, dilution in water 30%.

This is an account of results in patent publication US6893659B2, “Pharmaceutical composition for oral administration of a N-piperidino-3- pyrazolecarboxamide derivative, its salts and their solvates” (Sanoti-Synthelabo, priority 1997, dated 2005).

Values after ≈ are worked out from the molar mass of the structure shown. Counter-ions that a name gives are not always drawn.

`Cc1c(C(=O)NN2CCCCC2)nn(-c2ccc(Cl)cc2Cl)c1-c1ccc(Cl)cc1` [Hydrochloride (solvated)]: in series [1], the “Solubility, dissolution medium Acetic buffer pH 7.5” value came to 54 μg per ml; the “Solubility, dissolution medium Phosphate buffer pH 7.5” value came out at 0.5 μg per ml; the “Solubility, dissolution medium Water + 10% ethanol” value is reported as 10 μg per ml. Moreover, in series [1] (water), the “Solubility, dissolution medium Water” value worked out at 37 μg per ml.
For `Cc1c(C(=O)NN2CCCCC2)nn(-c2ccc(Cl)cc2Cl)c1-c1ccc(Cl)cc1` [Hydrogensulfate], in that order: 30 μg per ml, 0.9 μg per ml, 38 μg per ml and 13 μg per ml.
As for `Cc1c(C(=O)NN2CCCCC2)nn(-c2ccc(Cl)cc2Cl)c1-c1ccc(Cl)cc1` [Methanesulfonate (solvated)], in series [1] (water), the “Solubility, dissolution medium Water” value is 39 μg per ml. Further, the “Solubility, dissolution medium Water + 10% ethanol” value in series [1] was determined as 48 μg per ml.
For the compound `Cc1c(C(=O)NN2CCCCC2)nn(-c2ccc(Cl)cc2Cl)c1-c1ccc(Cl)cc1` [Paratoluenesulfonate], in series [1], the “Solubility, dissolution medium Acetic buffer pH 7.5” value amounted to 2.4 μg per ml; the “Solubility, dissolution medium Phosphate buffer pH 7.5” value was found to be 0.2 μg per ml; the “Solubility, dissolution medium Water + 10% ethanol” value is 7.3 μg per ml. The “Solubility, dissolution medium Water” value in series [1] (water) turned out to be 3.9 μg per ml.
For `Cc1c(C(=O)NN2CCCCC2)nn(-c2ccc(Cl)cc2Cl)c1-c1ccc(Cl)cc1` [Phosphate], in that order: 0.9 μg per ml, 0.7 μg per ml, 7.5 μg per ml and 1.3 μg per ml.
With `Cc1c(C(=O)NN2CCCCC2)nn(-c2ccc(Cl)cc2Cl)c1-c1ccc(Cl)cc1` [Solvated compound A], in series [1], the “Solubility, dissolution medium Acetic buffer pH 7.5” value was 1.2 μg per ml and the “Solubility, dissolution medium Water + 10% ethanol” value is reported as 0.9 μg per ml. Besides, the “Solubility, dissolution medium Water” value in series [1] (water) is recorded as 0.7 μg per ml.
For `Cc1c(C(=O)NN2CCCCC2)nn(-c2ccc(Cl)cc2Cl)c1-c1ccc(Cl)cc1` [compound A, N-Piperidino-5-(4-chlorophenyl)-1-(2,4-dichlorophenyl)-4-methylpyrazole-3-carboxamide], the “Amount of compound A dissolved, measured” value in series [2] (setting [7]) is 1.2.10^−3 mg/ml; in series [2] (setting [8]), 3 µg/mL. Also, the “Amount of compound A dissolved, theoretical” value in series [2] (setting [7]) worked out at 3.5 mg/mL; in series [2] (setting [8]) it was 15 mg/mL. The solubility – broadly, the dissolved amount per volume that the medium holds – stood at 35 mg/mL (≈ 75.5 mM) in series [2] (solvent Ethanol) and 50 mg/mL (≈ 108 mM) in series [2] (solvent Polyethylene glycol 400). Also, in series [2] (solution in polyethylene glycol 1500 at 60° C.), the Dilution in water result is recorded as “not dilutable”. Further, the “Solubility of compound A” value in series [2] (solvent Polyethylene glycol 1500 at 60° C.) came out at 80 mg/g. In addition, the Papp A→B in series [3] was determined as 9.6 ×10⁻⁶ cm/s. Moreover, the “Relative rate of passage” value in series [4] (Caco-2 monolayer, Hank's medium pH 6.5, relative to compound A in suspension in Hank's medium (=1)) is 1. Besides, in series [4] (compound dissolved in DMSO), the “Permeability / ability to pass through the epithelium (in words)” value is “very good ability and high”. For the same compound, the “Dissolution in the dissolution medium with nothing else added” value in series [5] is “no dissolution takes place”. In addition, the “Wettability in water (in words)” value in series [6] is recorded as “not wettable”. In addition, the “Solubility, dissolution medium Water + 10% ethanol” value in series [1] (listed as Compound A (base)) is on record as 1.2 μg per ml. The “Solubility in water (in words)” value in series [1] (water, irrespective of the pH) was “practically insoluble”.
